# Test results as given in patent US20110281836A1, “Silent desensitizers of neuronal NACHR and methods of use thereof” (priority 2008, published 2011).
# Key:
# [1] = in vivo; cited from earlier work
# α7 nAChRs = settings: radioligand binding assays; cited from earlier work
# α4β2 nAChRs [2] = target: T1, α4β2 nAChRs (Homo sapiens, UniProt P17787+P43681); settings: preincubated for 10 min with the cells; complete desensitization; cited from earlier work
# T1 construct: expressed in transfected cells; host or cells: SH-EP1 (SH-EP1-pcDNA-hα4β2)
# α4β2 nAChRs [3] = target: T1, α4β2 nAChRs; settings: cited from earlier work
# α3β4 nAChRs [4] = target: T2, α3β4 nAChRs (Rattus norvegicus, UniProt P04757+P12392); settings: radioligand binding assays; cited from earlier work
# T2 construct: expressed in transfected cells; host or cells: HEK293 (KXα3β4R2)
# α4β2 nAChRs [5] = target: T3, α4β2 nAChRs (Rattus norvegicus, UniProt P09483+P12390); test: radioligand ([3H]epibatidine) competition binding, α4β2 nAChR
# T3 construct: expressed in transfected cells; host or cells: HEK293 (KXα4β2)
# Experimental: (§1) A. Cell Lines and Cell Culture. The cell lines KXα3β4R2, expressing rat α3β4 nAChRs, and KXα4β2, expressing rat α4β2 nAChRs, were established previously by stably transfecting human embryonic kidney 293 cells with combinations of rat nAChR subunit genes. These cell lines are maintained in minimum essential medium supplemented with 10% fetal bovine serum, 100 units/mL penicillin G, […] streptomycin, and 0.7 mg/mL G418 (Geneticin) at 37° C. with 5% CO2 in a humidified incubator. The cell line SH-EP1-pcDNA-hα4β2, expressing human α4β2 nAChRs, was described previously and are available. The SH-EP1-pcDNA-hα4β2 cells are grown in Dulbecco's modified Eagle's medium supplemented with 5% fetal bovine serum, 10% horse serum, 100 units/mL penicillin G, 100 μg/mL streptomycin, 320 μg/mL hygromycin B (Calbiochem, La Jolla, Calif.), 400 units/mL Zeocin at 37° C. with 5% CO2 in a humidified incubator.
# B. nAChR Binding Affinity and Sub-type Selectivity Assay. The Ki values of compounds for binding to α3β4, α4β2 and other nAChR sub-types will be measured by competition experiments with [3H]epibatidine or other labeled ligands. Not intending to be bound by any one approach, one radioligand binding assay used for measuring the binding of [3H]epibatidine to nAChRs is described below.
# In brief, cultured cells at above about 80% confluence will be removed from their flasks (80 cm^2) with a disposable cell scraper and will be placed in 10 mL of 50 mM Tris-HCl buffer, pH 7.4, 4° C. The cell suspension will be centrifuged at 10,000 g for 5 min and the pellet will be collected. For cells undergoing prolonged treatment with nicotinic agonists during culturing, the pellet will be washed two more times by centrifugation in fresh buffer to remove residual drug. The cell pellet will then homogenized in 10 mL of buffer with a Polytron homogenizer (12-mm aggregate, 26,000 rpm, 20 s; model PT2100; Kinematica, Basel, Switzerland) and will be centrifuged at 36,000 g for 10 min at 4° C. The membrane pellet will be resuspended in fresh buffer, and aliquots of the membrane preparation equivalent to 30 to 200 μg of protein will be used for binding assays. The concentration of [3H]epibatidine used will be 100 pM for competition binding assays and 2.4 nM, which is a saturating concentration for the α4β2 receptor subtype, for measuring receptor density. Nonspecific binding will be assessed in parallel incubations in the presence of 300 μM nicotine. Bound and free ligands will be separated by vacuum filtration through Whatman GF/C filters treated with 0.5% polyethylenimine. The filter-retained radioactivity will be measured by liquid scintillation counting. […] Data from saturation and competition binding assays will be analyzed using Prism 4 (GraphPad Software, San Diego, Calif.).
# α3β4 nAChRs [6] = target: T2, α3β4 nAChRs; settings: concentrations up to 10 μM, even after preincubation; cited from earlier work
# [7] = stability of the isolated HCl salt on exposure to air; format: physicochemical; settings: white solid, larger scale
# Excerpt: A gram-scale synthesis of sazetidine A is outlined in FIG. 1a. The Boc-protected azidityl methyl alcohol 2 and 3-bromo-5-hydroxy pyridine (3) are both commercially available. Treatment with PPh3 and DEAD according to the Mitsunobu protocol formed ether derivative 4 in 70% yield. Palladium-mediated coupling of the bromo-substituted pyridine 4 with 5-hexyn-1-ol under modified Sonogashira conditions furnished Boc-protected sazetidine A in 73% yield. Deprotection of the Boc-group with HCl was expected to give sazetidine A in salt form as published in the literature.
# α3β4 nAChRs [8] = target: T2, α3β4 nAChRs; test: radioligand ([3H]epibatidine) competition binding, α3β4 nAChR
# Experimental: as §1, with “The SH-EP1-pcDNA-hα4β2 cells are grown in Dulbecco's modified Eagle's medium supplemented with 5% fetal bovine serum, 10% horse serum, 100 units/mL penicillin G, 100 μg/mL streptomycin, 320 μg/mL hygromycin B (Calbiochem, La Jolla, Calif.), 400 units/mL Zeocin at 37° C. with 5% CO2 in a humidified incubator.” left out
# B. nAChR Binding Affinity and Sub-type Selectivity Assay. The Ki values of compounds for binding to α3β4, α4β2 and other nAChR sub-types will be measured by competition experiments with [3H]epibatidine or other labeled ligands. […]
# In brief, cultured cells at above about 80% confluence will be removed from their flasks (80 cm^2) with a disposable cell scraper and will be placed in 10 mL of 50 mM Tris-HCl buffer, pH 7.4, 4° C. […] Nonspecific binding will be assessed in parallel incubations in the presence of 300 μM nicotine. […] The filter-retained radioactivity will be measured by liquid scintillation counting. […] Data from saturation and competition binding assays will be analyzed using Prism 4 (GraphPad Software, San Diego, Calif.).
# α4β2 nAChRs [9] = target: T1, α4β2 nAChRs; test: desensitizer test: 86Rb+ efflux after 10 min preincubation, α4β2 nAChR; format: cell-based
# Experimental: as §1, with “The SH-EP1-pcDNA-hα4β2 cells are grown in Dulbecco's modified Eagle's medium supplemented with 5% fetal bovine serum, 10% horse serum, 100 units/mL penicillin G, 100 μg/mL streptomycin, 320 μg/mL hygromycin B (Calbiochem, La Jolla, Calif.), 400 units/mL Zeocin at 37° C. with 5% CO2 in a humidified incubator.” left out
# C. nAChR Functional Assay. The agonist, antagonist and/or desitizer activity of compounds of the invention can be evaluated by measuring its blockade of nicotine-stimulated 86Rb+ efflux. […]
# In brief, cells will be plated into 24-well plates coated with poly-D-lysine. […] Radioactivity of assay samples and lysates will be measured by liquid scintillation counting. Total loading (cpm) will be calculated as the sum of the assay sample and the lysate of each well. The amount of 86Rb+ efflux will be expressed as a percentage of 86Rb+ loaded. […] IC50 values will be determined by nonlinear least-squares regression analyses (GraphPad Software).
# D. Measurement of Desensitization. Not intending to be bound by any one method, desensitization may be measured, for example, by the method described below. […]
Structure (SMILES),analgesic potency [1],"selectivity, affinity at α4β2 compared to α7 nAChRs (α7 nAChRs)",EC50 (α4β2 nAChRs [2]) [nM],agonist activity at α4β2 nAChRs (α4β2 nAChRs [3]; added alone),"antagonist activity at α4β2 receptors (α4β2 nAChRs [3]; added simultaneously with an agonist, such as nicotine)","selectivity, affinity at α4β2 compared to α3β4 nAChRs (α3β4 nAChRs [4])",Ki (α4β2 nAChRs [5]) [nM],effect on the function of α3β4 nAChRs (α3β4 nAChRs [6]),stability on exposure to air [7],Ki (α3β4 nAChRs [8]) [nM],IC50 (α4β2 nAChRs [9]) [nM],decrease in Ki relative to sazetidine A (α4β2 nAChRs [5]; triazole in place of the alkynyl group),"selectivity for the α4β2 receptor (α4β2 nAChRs [5]; α4β2 over α3β4, from Ki values)"
Clc1ccc(C2CC3CCC2N3)cn1 (centres unmarked) [Epibatidine],~200 times that of morphine,,,,,,,,,,,,
OCCCCC#Cc1cncc(OCC2CCN2)c1 (centres unmarked) [sazetidine A],,"> 3,500 fold",26,low agonist activity,no typical antagonist activity,"greater than 10,000 fold",0.41,no effect,decomposition of the material to a yellow-brown wet solid,,,,
OCCCCc1cn(-c2cncc(OCC3CCN3)c2)nn1 (centres unmarked) [triazetidine O],,,,,,,3.51,,,62000,100,approximately 10 fold,"17,692 fold"
